In patent US6939863B2, “Prevention of atherosclerosis and restenosis” (priority 2002, dated 2005):

Legend:
[1] = tested on: rat vascular smooth muscle cells; assay: Vascular smooth muscle cell proliferation (cell number); type: cell-based; conditions: for Cell number of VSMCs: 24 hours
Description: Rat vascular smooth muscle cells (VSMCs) (passages 5-10) were prepared from Sprague-Dawley rats and cultured in Dulbecco's modified Eagle's medium (DMEM) supplemented with 10% fetal bovine serum (FBS) as previously described (Kirschenlohr et al, in “Human Cell Culture Protocols”, New Jersey, Humana Press Inc, 1996, pp. 318-335). Human endothelial cells from umbilical veins were prepared as described (Morgan, in “Human Cell Culture Protocols”, New Jersey, Humana Press Inc, 1996, pp. 101-152)
Rat vascular smooth muscle cells and human endothelial cells were plated at a density of 10,000 cells per square centimeter in 24-well plates. After 24 hours, cells at 70-80% confluency were treated with propylthiouracil dissolved in 100% dimethylsulfoxide (DMSO) at final concentrations of from 0.05 millimolar to 15 millimolar, or with methimazole (Sigma, St. Louis, Mo.) dissolved in water at the concentrations of from 0.01 millimolar to 1 millimolar for 24-72 hours. Cell numbers were visually counted using a hemocytometer. For the thymidine incorporation study, cells were deprived of serum for 36 hours and labeled with [methyl-^3H]thymidine at […] per milliliter for 12-24 hours after synchronization. Thymidine incorporation was then measured (Newby and George, 1996, Curr. Opin. Cardiol., 11:547). Effects of propylthiouracil and methimazole on the number of vascular smooth muscle cells and human endothelial cells and thymidine incorporation by vascular smooth muscle cells were each expressed as a percentage of the number and thymidine incorporation of control cells maintained in medium containing 0.1% DMSO as vehicle.

[2] = tested on: type I and type III collagen expression in rat vascular smooth muscle cells; conditions: 5 millimolar
Description: The expression of smooth muscle cell collagen was determined by Northern blot analysis at the RNA level and Western blot analysis on the protein level. Total RNA (10 micrograms) from vascular smooth muscle cells grown in the media containing 0 (Control), 0.5 millimolar, 2.5 millimolar, or 5 millimolar propylthiouracil (PTU) for 24 hours was electrophoresed on a 1% agarose gel. The levels of pro-α1(I) collagen mRNA were measured as radioactivities, normalized relative to the density of 18S and 28S rRNA (FIG. 12, Panel A).
The effects of lower physiological concentrations of propylthiouracil on the expression of type I and type III collagen genes was also studied at the RNA level. Northern blot analysis was carried out on total RNA from rat vascular smooth muscle cells grown for 24 to 72 hours (1 to 3 days) in media containing 0 (Control, C), 0.38 millimolar, 0.5 millimolar, or 0.76 millimolar propylthiouracil. Type I collagen (FIG. 13, Panel A) and type III collagen (FIG. 13, Panel B) mRNA radioactivity levels were normalized relative to 18S and 28S rRNA (FIG. 13, Panel C).
Type I collagen (FIG. 14, Panel A) and type III collagen (FIG. 14, Panel B) protein levels were normalized relative to the protein levels of tubulin. […]

restenosis = conditions: summary table; cited from earlier work; further: key: '+' represents the ability; a '−' represents the inability of conversion from a non-contracile phenotype to a contractile phenotype in an in vitro condition; A '↓' represents decrease; a '?' represents no data is available
[3] = tested on: rat vascular smooth muscle cells

For `CCCc1cc(=O)[nH]c(=S)[nH]1` [Propylthiouracil, 6-n-propyl-2-thiouracil], which “Cell number of VSMCs” value ([1]; 0.05 millimolar) is on record?
Its value is 103 % of control.

What about the “Proliferation of VSMCs at low concentration” value ([1]; 0.05 millimolar, 24 hours treatment) of the same compound?
The value was “not inhibited”.

And the “Proliferation of VSMCs at low concentration, long-term” value ([1]; 0.05 millimolar, exposed for more than 2 days)?
The value was “antiproliferative effect was indeed observed”.

What about the “Cell number of VSMCs” value ([1]; 0.5 millimolar) of the same compound?
The value was 103 % of control.

What about the “Cell number of VSMCs” value ([1]; 2.5 millimolar) of the same compound?
Its value is 76 % of control.

What about the “Cell number of VSMCs” value ([1]; 5 millimolar) of the same compound?
The value was 57 % of control.

What about the IC50 ([1]; Rattus norvegicus, VSMC, 24 h, read-out: IC50 for VSMCs (proliferation)) of the same compound?
Its IC50 is 5.8 mM.

And the “Inhibition of growth/proliferation of VSMCs” value ([1]; concentration-dependent, PTU 0.05-5 millimolar, methimazole 0.01-1 millimolar)?
Its value is “significantly inhibited”.

What about the “Staining density for type I collagen (immunocytochemistry)” value [2] of the same compound?
The value was “decrease”.

What about the “Staining density for type III collagen (immunocytochemistry)” value [2] of the same compound?
The value was “decrease”.

What about the “Effect on animal models of restenosis, Rat” value (restenosis) of the same compound?
The value was “+”.

What about the “Cytotoxic effect on VSMCs by trypan blue exclusion test” value ([3]; 24 hours) of the same compound?
Its value is “no cytotoxic effect”.

And the “Number of cells that excluded trypan blue” value ([3]; 24 hours treatment, n=5)?
Its value is 94.4±0.4%.
